# Data as given in PMC5538702, “Inhibitory effects and mechanism of dihydroberberine on hERG channels expressed in HEK293 cells” (PLoS ONE, 2017).
# Biological target: T1, human ether-a-go-go-related gene (hERG) potassium channel (Homo sapiens, UniProt Q12809)
# T1 construct: gene KCNH2; WT hERG stably expressed in HEK293 cells
# Experiment: whole-cell patch clamp of hERG tail current, immediate perfusion; acute block lost in Y652A and F656V mutants
# Assay type: cell-based
# T1 sequence (Q12809 whole entry): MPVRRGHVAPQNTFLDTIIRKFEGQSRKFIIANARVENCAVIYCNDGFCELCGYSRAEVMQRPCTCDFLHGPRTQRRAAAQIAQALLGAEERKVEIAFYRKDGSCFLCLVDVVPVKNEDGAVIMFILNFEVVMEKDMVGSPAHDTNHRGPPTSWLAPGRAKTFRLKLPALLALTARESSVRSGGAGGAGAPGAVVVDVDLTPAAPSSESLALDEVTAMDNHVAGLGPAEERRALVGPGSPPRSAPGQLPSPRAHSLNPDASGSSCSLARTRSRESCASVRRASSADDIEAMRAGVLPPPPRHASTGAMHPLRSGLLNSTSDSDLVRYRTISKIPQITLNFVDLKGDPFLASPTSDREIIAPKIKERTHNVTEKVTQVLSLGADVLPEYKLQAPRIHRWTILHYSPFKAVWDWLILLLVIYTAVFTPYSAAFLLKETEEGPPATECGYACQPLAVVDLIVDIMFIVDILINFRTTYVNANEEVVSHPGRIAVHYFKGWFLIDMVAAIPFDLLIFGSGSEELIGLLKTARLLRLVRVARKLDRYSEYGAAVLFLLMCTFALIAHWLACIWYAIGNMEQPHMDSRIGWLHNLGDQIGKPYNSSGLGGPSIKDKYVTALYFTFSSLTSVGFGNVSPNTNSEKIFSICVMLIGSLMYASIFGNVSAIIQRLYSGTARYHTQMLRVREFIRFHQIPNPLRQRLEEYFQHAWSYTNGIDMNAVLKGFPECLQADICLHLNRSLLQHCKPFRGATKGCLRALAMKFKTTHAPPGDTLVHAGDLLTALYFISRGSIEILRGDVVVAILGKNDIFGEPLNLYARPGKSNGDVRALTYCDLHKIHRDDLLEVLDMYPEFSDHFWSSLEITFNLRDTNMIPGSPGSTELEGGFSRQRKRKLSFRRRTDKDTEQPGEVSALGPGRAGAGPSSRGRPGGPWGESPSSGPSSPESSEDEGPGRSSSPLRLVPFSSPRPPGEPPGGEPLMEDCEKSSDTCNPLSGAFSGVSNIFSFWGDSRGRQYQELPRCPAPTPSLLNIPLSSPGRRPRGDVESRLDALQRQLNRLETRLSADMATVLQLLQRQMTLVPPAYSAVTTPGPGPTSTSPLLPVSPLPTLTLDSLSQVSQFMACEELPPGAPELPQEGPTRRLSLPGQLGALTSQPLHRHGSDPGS
structure (smiles),measurement,value
"COc1ccc2c(c1OC)CN1CCc3cc4c(cc3C1=C2)OCO4 [DHB, dihydroberberine]",IC50,10.5 µM
